Test results as given in ChEMBL document CHEMBL4602605, “Fluoroquinolones structural and medicinal developments (2013-2018): Where are we now?” (Bioorg Med Chem, 2019).
≈ marks a conversion by molar mass, not a printed value. Values belong to the compound of their own block, whether it stands above or below them.

How the values were obtained:
Staphylococcus aureus [1] = assay: Antimicrobial activity against Staphylococcus aureus ATCC 6538 by agar dilution method; assay type: functional
Pseudomonas aeruginosa [2] = assay: Antimicrobial activity against Pseudomonas aeruginosa ATCC 9027 by agar well diffusion method; assay type: functional
Escherichia coli [3] = assay: Antimicrobial activity against Escherichia coli ATCC 8739 by agar dilution method; assay type: functional
Bacillus subtilis = assay: Antimicrobial activity against Bacillus subtilis 10B incubated for 18 to 24 hrs by disk diffusion method; assay type: functional
Staphylococcus aureus [4] = assay: Antimicrobial activity against Staphylococcus aureus ATCC 25923 incubated for 18 to 24 hrs by disk diffusion method; assay type: functional
Escherichia coli [5] = assay: Antimicrobial activity against Escherichia coli ATCC 25922 incubated for 18 to 24 hrs by disk diffusion method; assay type: functional
Pseudomonas aeruginosa [6] = assay: Antimicrobial activity against Pseudomonas aeruginosa ATCC 27853 incubated for 18 to 24 hrs by disk diffusion method; assay type: functional
Staphylococcus aureus [7] = assay: Antimicrobial activity against methicillin-resistant Staphylococcus aureus clinical isolate incubated for 16 hrs by CLSI based agar dilution method; assay type: functional
[8] = tested on: Staphylococcus epidermidis; assay: Antimicrobial activity against methicillin-resistant Staphylococcus epidermidis clinical isolate incubated for 16 hrs by CLSI based agar dilution method; assay type: functional
Klebsiella pneumoniae = assay: Antimicrobial activity against Klebsiella pneumoniae ATCC 29522 incubated for 16 hrs by CLSI-based agar dilution method; assay type: functional; conditions: ATCC 29522, 16 h
Staphylococcus aureus [9] = assay: Antimicrobial activity against methicillin-susceptible Staphylococcus aureus clinical isolate incubated for 16 hrs by CLSI based agar dilution method; assay type: functional
Escherichia coli [10] = assay: Antimicrobial activity against Escherichia coli ATCC 700603 incubated for 16 hrs by CLSI-based agar dilution method; assay type: functional; conditions: ATCC 700603, 16 h
[11] = tested on: Staphylococcus epidermidis; assay: Antimicrobial activity against methicillin-susceptible Staphylococcus epidermidis clinical isolate incubated for 16 hrs by CLSI based agar dilution method; assay type: functional
[12] = tested on: Staphylococcus epidermidis; assay: Antimicrobial activity against methicillin-resistant Staphylococcus epidermidis 12-1 incubated for 18 to 24 hrs; assay type: functional
Staphylococcus aureus [13] = assay: Antimicrobial activity against Staphylococcus aureus ATCC 25923 incubated for 18 to 24 hrs; assay type: functional
Pseudomonas aeruginosa [14] = assay: Antimicrobial activity against Pseudomonas aeruginosa ATCC 12-12 incubated for 18 to 24 hrs; assay type: functional
Escherichia coli [15] = assay: Antimicrobial activity against Escherichia coli ATCC 25922 incubated for 18 to 24 hrs; assay type: functional
Staphylococcus aureus [16] = assay: Antimicrobial activity against methicillin-resistant Staphylococcus aureus ATCC 12-1 incubated for 18 to 24 hrs; assay type: functional
Aspergillus clavatus = assay: Antifungal activity against Aspergillus clavatus after overnight incubation by agar well diffusion method; assay type: functional
PC-3 = assay: Growth inhibition of human PC3 cells by MTT assay; assay type: functional, cell-based

MIC (Staphylococcus aureus [1]): 1.21 µg/mL (≈ 3.29 µM)
MIC (Pseudomonas aeruginosa [2]): 4.83 µg/mL (≈ 13.1 µM)
MIC (Escherichia coli [3]): 0.3 µg/mL (≈ 0.816 µM)
SMILES: CCn1cc(C(=O)O)c(=O)c2cc(F)c(N3CCNC(C)C3)c(Cl)c21 (stereo unspecified)

MIC (Staphylococcus aureus [1]): 0.32 µg/mL (≈ 0.999 µM)
MIC (Pseudomonas aeruginosa [2]): 128 µg/mL (≈ 400 µM)
MIC (Escherichia coli [3]): 16 µg/mL (≈ 50 µM)
SMILES: CCn1cc(C(=O)O)c(=O)c2cc(F)c(N3CCOCC3)cc21

MIC (Staphylococcus aureus [1]): 0.25 µg/mL (≈ 0.822 µM)
MIC (Pseudomonas aeruginosa [2]): 16 µg/mL (≈ 52.6 µM)
MIC (Escherichia coli [3]): 16 µg/mL (≈ 52.6 µM)
SMILES: CCn1cc(C(=O)O)c(=O)c2cc(F)c(N3CCCC3)cc21

MIC (Bacillus subtilis): 0.125 µg/mL (≈ 0.464 µM)
MIC (Staphylococcus aureus [4]): 0.535 µg/mL (≈ 1.98 µM)
MIC (Escherichia coli [5]): 0.355 µg/mL (≈ 1.32 µM)
MIC (Pseudomonas aeruginosa [6]): 116 µg/mL (≈ 432 µM)
SMILES: CCn1cc(C(=O)O)c(=O)c2cc(F)c(Cl)cc21

MIC (Staphylococcus aureus [1]): < 0.125 µg/mL
MIC (Pseudomonas aeruginosa [2]): 1.28 µg/mL (≈ 4.02 µM)
MIC (Escherichia coli [3]): 32 µg/mL (≈ 101 µM)
SMILES: CCn1cc(C(=O)O)c(=O)c2cc(F)c(N3CCCCC3)cc21

MIC (Bacillus subtilis): > 500 µg/mL
MIC (Staphylococcus aureus [4]): 310 µg/mL (≈ 819 µM)
MIC (Escherichia coli [5]): 120 µg/mL (≈ 317 µM)
MIC (Pseudomonas aeruginosa [6]): > 500 µg/mL
SMILES: CCn1cc(C(=O)O)c(=O)c2cc(F)c(Nn3c(=O)cc[nH]c3=O)c(F)c21

IC50 (PC-3): 12 µg/mL (≈ 21 µM)
SMILES: COc1c(N2CCN(C)CC2)c(F)cc2c(=O)c(C(=O)N/N=C\c3cc(Br)ccc3O)cn(C3CC3)c12
inhibition zone (IZ) (Aspergillus clavatus): 12 mm

MIC (Bacillus subtilis): > 500 µg/mL
MIC (Staphylococcus aureus [4]): 515 µg/mL (≈ 1570 µM)
MIC (Escherichia coli [5]): 510 µg/mL (≈ 1550 µM)
MIC (Pseudomonas aeruginosa [6]): > 500 µg/mL
SMILES: CCn1cc(C(=O)O)c(=O)c2cc(F)c(Nc3ncccn3)cc21

IC50 (PC-3): 16.3 µg/mL (≈ 34.1 µM)
SMILES: COc1c(N2CCN(C)CC2)c(F)cc2c(=O)c(C(=O)N/N=C\c3ccccc3)cn(C3CC3)c12
inhibition zone (IZ) (Aspergillus clavatus): 11 mm

MIC (Staphylococcus aureus [1]): < 0.125 µg/mL
MIC (Pseudomonas aeruginosa [2]): 1.28 µg/mL (≈ 3.85 µM)
MIC (Escherichia coli [3]): 1.28 µg/mL (≈ 3.85 µM)
SMILES: CCn1cc(C(=O)O)c(=O)c2cc(F)c(N3CCCC(C)C3)cc21 (stereo unspecified)

MIC (Staphylococcus aureus [1]): 2 µg/mL (≈ 5.67 µM)
MIC (Pseudomonas aeruginosa [2]): 128 µg/mL (≈ 363 µM)
MIC (Escherichia coli [3]): 128 µg/mL (≈ 363 µM)
SMILES: CCn1cc(C(=O)O)c(=O)c2cc(F)c(N3CCCCC3)c(Cl)c21

Continued, compound first:

SMILES: CCn1cc(C(=O)O)c(=O)c2cc(F)c(N3CCNCC3)c(Cl)c21
MIC (Staphylococcus aureus [1]): 4 µg/mL (≈ 11.3 µM)
MIC (Pseudomonas aeruginosa [2]): 32 µg/mL (≈ 90.5 µM)
MIC (Escherichia coli [3]): 2 µg/mL (≈ 5.65 µM)

SMILES: O=C(O)c1cn(C2CC2)c2cc(N3CCN(CC(O)Cn4cc([N+](=O)[O-])nc4Cl)CC3)c(F)cc2c1=O (stereo unspecified)
MIC (Staphylococcus aureus [7]): 32 µg/mL (≈ 59.8 µM)
MIC [8]: 2 µg/mL (≈ 3.74 µM)
MIC (Klebsiella pneumoniae): > 32 µg/mL
MIC (Staphylococcus aureus [9]): 4 µg/mL (≈ 7.48 µM)
MIC (Escherichia coli [10]): 16 µg/mL (≈ 29.9 µM)
MIC [11]: 2 µg/mL (≈ 3.74 µM)

SMILES: CO/N=C1\CCN(c2c(F)cc3c(=O)c(C(=O)O)cn(C4CC4)c3c2OC)CC1NC(=O)CNC(=O)CN (stereo unspecified)
MIC [12]: 64 µg/mL (≈ 120 µM)
MIC (Staphylococcus aureus [13]): 4 µg/mL (≈ 7.51 µM)
MIC (Pseudomonas aeruginosa [14]): > 128 µg/mL
MIC (Escherichia coli [15]): 16 µg/mL (≈ 30 µM)
MIC (Staphylococcus aureus [16]): > 128 µg/mL

SMILES: CO/N=C1\CCN(c2c(F)cc3c(=O)c(C(=O)O)cn(C4CC4)c3c2OC)CC1NC(=O)CN (stereo unspecified)
MIC [12]: 32 µg/mL (≈ 67.3 µM)
MIC (Staphylococcus aureus [13]): 0.25 µg/mL (≈ 0.526 µM)
MIC (Pseudomonas aeruginosa [14]): 32 µg/mL (≈ 67.3 µM)
MIC (Escherichia coli [15]): 4 µg/mL (≈ 8.41 µM)
MIC (Staphylococcus aureus [16]): 32 µg/mL (≈ 67.3 µM)

SMILES: CO/N=C1\CCN(c2c(F)cc3c(=O)c(C(=O)O)cn(C4CC4)c3c2OC)CC1NC(=O)[C@H](N)CC(C)C (stereo partly specified)
MIC [12]: 64 µg/mL (≈ 120 µM)
MIC (Staphylococcus aureus [13]): 0.25 µg/mL (≈ 0.47 µM)
MIC (Pseudomonas aeruginosa [14]): 128 µg/mL (≈ 241 µM)
MIC (Escherichia coli [15]): 4 µg/mL (≈ 7.52 µM)
MIC (Staphylococcus aureus [16]): 64 µg/mL (≈ 120 µM)

SMILES: CO/N=C1\CCN(c2c(F)cc3c(=O)c(C(=O)O)cn(C4CC4)c3c2OC)CC1NC(=O)[C@H](C)N (stereo partly specified)
MIC [12]: 32 µg/mL (≈ 65.4 µM)
MIC (Staphylococcus aureus [13]): 0.125 µg/mL (≈ 0.255 µM)
MIC (Pseudomonas aeruginosa [14]): 64 µg/mL (≈ 131 µM)
MIC (Escherichia coli [15]): 4 µg/mL (≈ 8.17 µM)
MIC (Staphylococcus aureus [16]): 64 µg/mL (≈ 131 µM)

SMILES: CO/N=C1\CCN(c2c(F)cc3c(=O)c(C(=O)O)cn(C4CC4)c3c2OC)CC1NC(=O)[C@@H](N)C(C)C (stereo partly specified)
MIC [12]: 64 µg/mL (≈ 124 µM)
MIC (Staphylococcus aureus [13]): 0.25 µg/mL (≈ 0.483 µM)
MIC (Pseudomonas aeruginosa [14]): 32 µg/mL (≈ 61.8 µM)
MIC (Escherichia coli [15]): 4 µg/mL (≈ 7.73 µM)
MIC (Staphylococcus aureus [16]): 64 µg/mL (≈ 124 µM)

SMILES: COc1c(N2CCN(CC(O)Cn3cc([N+](=O)[O-])nc3C)C(C)C2)c(F)cc2c(=O)c(C(=O)O)cn(C3CC3)c12 (stereo unspecified)
MIC (Staphylococcus aureus [7]): 32 µg/mL (≈ 57.3 µM)
MIC [8]: 1 µg/mL (≈ 1.79 µM)
MIC (Klebsiella pneumoniae): > 32 µg/mL
MIC (Staphylococcus aureus [9]): 1 µg/mL (≈ 1.79 µM)
MIC (Escherichia coli [10]): 8 µg/mL (≈ 14.3 µM)
MIC [11]: 1 µg/mL (≈ 1.79 µM)

SMILES: CO/N=C1\CCN(c2c(F)cc3c(=O)c(C(=O)O)cn(C4CC4)c3c2OC)CC1NC(=O)[C@H](N)Cc1ccc(O)cc1 (stereo partly specified)
MIC [12]: 64 µg/mL (≈ 110 µM)
MIC (Staphylococcus aureus [13]): 2 µg/mL (≈ 3.44 µM)
MIC (Pseudomonas aeruginosa [14]): 128 µg/mL (≈ 220 µM)
MIC (Escherichia coli [15]): 16 µg/mL (≈ 27.5 µM)
MIC (Staphylococcus aureus [16]): > 128 µg/mL

SMILES: COc1c(N2CCN(C[C@H](O)Cn3cc([N+](=O)[O-])nc3C)C(C)C2)c(F)cc2c(=O)c(C(=O)O)cn(C3CC3)c12 (stereo partly specified)
MIC (Staphylococcus aureus [7]): 16 µg/mL (≈ 28.6 µM)
MIC [8]: 32 µg/mL (≈ 57.3 µM)
MIC (Klebsiella pneumoniae): 32 µg/mL (≈ 57.3 µM)
MIC (Staphylococcus aureus [9]): 32 µg/mL (≈ 57.3 µM)
MIC (Escherichia coli [10]): 32 µg/mL (≈ 57.3 µM)
MIC [11]: 32 µg/mL (≈ 57.3 µM)

SMILES: COc1c(N2CCCC(N(C)CC(O)Cn3cc([N+](=O)[O-])nc3C)C2)c(F)cc2c(=O)c(C(=O)O)cn(C3CC3)c12 (stereo unspecified)
MIC (Staphylococcus aureus [7]): 8 µg/mL (≈ 14 µM)
MIC [8]: 0.125 µg/mL (≈ 0.218 µM)
MIC (Klebsiella pneumoniae): 2 µg/mL (≈ 3.49 µM)
MIC (Staphylococcus aureus [9]): 0.5 µg/mL (≈ 0.873 µM)
MIC (Escherichia coli [10]): 4 µg/mL (≈ 6.99 µM)
MIC [11]: 0.5 µg/mL (≈ 0.873 µM)
